{
  "source": "patent US6730691B1",
  "about": "“Uses of alpha adrenergic blocking agents” (priority 2000, dated 2004)",
  "key": {"[1]": {"tested_on": "subjects who had undergone surgical implantation of a refractive intraocular lens, experiencing photophobia, glare, secondary images and haloing", "assay": "Topical thymoxamine ophthalmic solution in subjects after implantation of a refractive intraocular lens", "format": "in vivo, human", "conditions": "three subjects", "experimental": "A suitable ophthalmic solution was prepared containing about 0.5% by weight thymoxamine by the Moorfields Eye Hospital, London, England having the following composition: Applicant believes that the aqueous ophthalmic solution was prepared by dissolving the sodium acetate, boric acid and phenylmercuric nitrate in most of the purified water. Dissolution was promoted by heating the solution. Upon cooling the solution to room temperature, the thymoxamine hydrochloride was added and was dissolved without further heating. The remainder of the purified water was then added to reach a final volume of 100 ml. Sterilization of the solution was achieved by filtering it through a sterilizing filter. Three subjects, each of whom had undergone surgical implantation of a refractive intraocular lens, were selected for study. Each of the three subjects complained of experiencing photophobia, glare, secondary images and haloing, especially at night. Each of the three subjects received an approximately one drop dose twice daily of an ophthalmic solution containing 0.5% by weight of thymoxamine. […] Each of the subjects continued application of approximately a one drop dose on an as needed basis for a period of one month."}, "[2]": {"tested_on": "patients who had undergone radial keratotomy and who each experienced glare and halos", "assay": "Topical thymoxamine ophthalmic solution in patients after radial keratotomy", "format": "in vivo, human", "conditions": "two radial keratotomy patients; similarly treated with 0.5% by weight solution"}},
  "note": "Where a name gives a salt, the structure may show the parent alone.",
  "data": [
    {"smiles": "CC(=O)Oc1cc(C(C)C)c(OCCN(C)C)cc1C", "note": "[thymoxamine, thymoxamine hydrochloride]", "values": [
      {"measurement": "induced myopia or headaches", "setting": "[1]; 0.5% by weight solution, one day period", "result": "without experiencing induced myopia or headaches"},
      {"measurement": "irritation from the topical application to the eye", "setting": "[1]; after administration of a dosage of 0.5% by weight solution", "result": "mild irritation"},
      {"measurement": "undesirable visual anomalies once treatment was terminated", "setting": "[1]; after termination of treatment", "result": "returned to each of the three subjects"},
      {"measurement": "undesirable visual anomaly during the usage period", "setting": "[1]; approximately one drop as needed for one month", "result": "None of the subjects have experienced the previously complained of undesirable visual anomaly"},
      {"measurement": "previously complained of undesirable visual anomaly (photophobia, glare, secondary images, haloing)", "setting": "[1]; approximately one drop twice daily of 0.5% by weight solution, one day period", "result": "elimination of the previously complained of undesirable visual anomaly"},
      {"measurement": "glare and halos after treatment", "setting": "[2]", "result": "comparable results"}
    ]}
  ]
}
